Measured values taken from patent US10961233B2 (LIFEARC, priority 2016, dated 2021).

Tests used:
WT full length PAICS = WT full length PAICS (Homo sapiens (Human), UniProt P22234); assay: Biochemical assay to measure PAICS activity (Transcreener ADP2 FI); conditions: SAICAR synthetase reaction, ADP detection, 30 min pre-incubation
Source text: Biochemical Assay to Measure PAICS Activity
The biochemical assay was used to measure PAICS SAICAR synthetase-mediated conversion of CAIR, aspartic acid and ATP to SAICAR, ADP and inorganic phosphate (Pi), post-AIR/CAIR equilibration (see FIG. 3). This was achieved by detecting the ADP generated during the reaction, using Bellbrook Lab's Transcreener ADP^2 FI assay. An increase in the fluorescence intensity is directly proportional to the amount of PAICS activity.
The Transcreener ADP^2 FI assay is a homogeneous competitive displacement fluorescence intensity assay which uses direct immunodetection of ADP. Displacement of the tracer by ADP causes an increase in the fluorescence at excitation 590 nm and emission 617 nm (FIG. 3).
5 μl WT full length PAICS (final assay concentration, fac, 2.5 nM) in basic buffer, added to black, non-binding, 384-well plates (Corning #3575), columns 1 to 22. 5 μl basic buffer was added to columns 23+24 (negative control). PAICS stock at 31.9 μM from the PI's lab (Steve Firestine). Basic buffer contained 50 mM Tris-HCl pH8 and 0.5 mM EDTA, fac.
1 μl compound in 100% DMSO added per well, or 1 μl 100% DMSO to positive controls (columns 1+2) and negative controls (columns 23+24). Final assay top concentration of compound either 1 mM or 30-μM, serially diluted with half-log dilutions across the plate in duplicate (one 10-point concentration response curve across wells 3 to 12, another across 13 to 22). Compounds pre-incubated with PAICS enzyme for 30 mins at RT. 2 μl CAIR added (fac 10 μM) in basic buffer plus 25 mM MgCl2 and 50 mM KHCO3 fac to all wells. CAIR stock 50 mM from Steve Firestine's lab. 1 hr RT incubation for AIR-CAIR equilibration. NB: ˜50% CAIR is decarboxylated during equilibration therefore 5 μM remains for the synthetase reaction.
2 μl ATP/aspartic acid added (fac 30 μM/180 μM) in reaction buffer to all wells. 30 mins RT incubation for appropriate level of ATP turnover. Reaction buffer contained basic buffer plus 10 mM DTT, 0.01% BSA and 0.01% Brij 35, fac.
10 μl ADP detection reagent added to all wells (as per instructions, Transcreener ADP^2 FI kit, BellBrook Labs #3013-10K). Incubation for 1 h at RT to allow antibody equilibration. Fluorescence intensity determined using a Tecan Safire2 (excitation at 590 nm, emission at 617 nm).

[1] = system: LM2 and MDA-MB-231 breast cancer cell lines; assay: PAICS 2D cell proliferation assay (CellTiter-Glo viability, 72 h); assay type: cell-based; conditions: Homo sapiens; 72 h incubation; cell line not given
Method: PAICS 2D Cell Proliferation Assay
Frozen cryovial stocks of LM2 and MDA-MB-231 breast cancer cell lines were thawed and cultured in 4.5 g/L glucose DMEM (31966-047, Invitrogen) supplemented with 10% Fetal Bovine Serum (10500-064, Invitrogen) until confluent in a T175 flask. Cells were incubated at 37° C. with 5% CO2 in a humidified incubator.
Cells were collected from T175 flasks by washing with PBS (10010-056, Invitrogen) and dissociated using Accutase (A6964, Sigma Aldrich). This was followed by centrifuging (1200 rpm, 5 min) and resuspending the cells in 10 ml of media containing 1% penicillin/streptomycin (15140-122, Invitrogen). Cells were counted by trypan blue exclusion method using an automated cell counter (Cellometer) and diluted to a concentration of 40,000/ml. 1000 cells were then seeded into 384-well white-walled plates (Corning, 3707) in a volume of 25 μl. Plates were Incubated overnight at 37° C. with 5% CO2.
After 24 hours, PAICS compounds were added onto the assay plates using an HP D300 Digital Dispenser (Hewlett Packard). 10 mM stocks were used and dispensed as a 10 point concentration response curve (CRC) ½ log dilution series with a final top concentration of 100 μM. Controls were added onto each plate: positive controls included Staurosporine CRC (100 μM stock dispensed as a 10 point CRC ½ log dilution series with a final top concentration of 1 μM) and PAICS compound MRT00211919 (10 mM stock dispensed as a 10 point CRC ½ log dilution series with a final top concentration of 100 μM); a high control of Staurosporine (0.1 μM (LM2), 0.316 μM (MDA-MB-231) FAC) and a low control of media containing 1% DMSO. A final concentration of 1% DMSO was then added across the plates for normalisation. Following compound addition, assay plates were incubated for 72 hours at 37° C. with 5% CO2.
Day 5—Cytotoxicity and Cell Viability Assays
After 72 h incubation, dead and viable cells were measured in each assay plate. Cytotoxicity was assessed through fluorescent DNA staining using the CellTox™ Green Cytotoxicity Assay kit (G8743, Promega) following the manufacturer's multiplexing protocol. Impaired cell membrane integrity results in the access of dye to stain DNA allowing quantification of dead cells. Cell viability was determined following ATP quantification using the CellTiter-Glo® Luminescent Cell Viability Assay kit (G7572, Promega) following the manufacturer's protocol. ATP released from lysed cells allowed for the generation of a signal proportional to the number of cells present in the well. All endpoint reads were performed using the PheraSTAR Plus (BMG Labtech). Data is expressed as % viable cells and % dead cells against controls (mean±SEM of duplicate curves).

WT full length PAICS, sequence (P22234 whole entry): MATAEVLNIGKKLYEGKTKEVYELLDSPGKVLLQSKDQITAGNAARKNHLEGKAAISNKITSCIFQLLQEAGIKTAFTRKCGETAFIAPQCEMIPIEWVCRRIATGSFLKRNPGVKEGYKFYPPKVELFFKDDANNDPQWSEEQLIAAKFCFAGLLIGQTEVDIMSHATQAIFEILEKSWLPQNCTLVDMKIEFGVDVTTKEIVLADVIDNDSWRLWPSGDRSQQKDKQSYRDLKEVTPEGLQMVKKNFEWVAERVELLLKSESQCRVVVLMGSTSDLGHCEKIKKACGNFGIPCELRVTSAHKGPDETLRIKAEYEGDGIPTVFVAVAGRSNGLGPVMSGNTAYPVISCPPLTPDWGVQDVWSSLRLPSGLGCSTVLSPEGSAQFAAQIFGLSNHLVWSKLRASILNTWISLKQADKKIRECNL

| IC50 (WT full length PAICS) [nM] | EC50 [1] [nM] | Structure (SMILES) |
| --- | --- | --- |
| 25 to 100 | 500 to 1000 | NCCS(=O)(=O)N1CCN(c2ccc(Cl)c(NC(=O)c3coc(N)n3)c2)CC1 [Example 53, 2-Amino-N-(5-(4-(2-aminoethylsulfonyl)piperazin-1-yl)-2-chlorophenyl) oxazole-4-carboxamide] |
| < 10 | < 100 | CC(C)NCCS(=O)(=O)N1CCN(c2ccc(Br)c(NC(=O)c3coc(N)n3)c2)CC1 [Example 63] |
| < 10 | 100 to 250 | CN1CCC(NCCS(=O)(=O)N2CCN(c3ccc(Br)c(NC(=O)c4coc(N)n4)c3)CC2)CC1 [Example 64, 2-Amino-N-{2-bromo-5-[4-({2-[(1-methylpiperidin-4-yl)amino]ethyl}sulfonyl)piperazin-1-yl]phenyl}-1,3-oxazole-4-carboxamide] |
| > 100 | 500 to 1000 | CN(C)CCCN1CCN(c2ccc(Cl)c(NC(=O)c3coc(N)n3)c2)CC1=O [Example 46, 2-Amino-N-(2-chloro-5-{4-[3-(dimethylamino)propyl]-3-oxopiperazin-1-yl}phenyl)-1,3-oxazole-4-carboxamide] |
| 10 to 25 | 250 to 500 | Nc1nc(C(=O)Nc2cc(N3CCN(S(=O)(=O)C4CCNCC4)CC3)ccc2Cl)co1 [Example 86, 2-Amino-N-{2-chloro-5-[4-(piperidin-4-ylsulfonyl)piperazin-1-yl]phenyl}-1,3-oxazole-4-carboxamide] |
| 10 to 25 | 500 to 1000 | CN(C)CCS(=O)(=O)N1CCN(c2ccc(Cl)c(NC(=O)c3coc(N)n3)c2)CC1 [Example 57, 2-Amino-N-[2-chloro-5-(4-{[2-(dimethylamino)ethyl]sulfonyl}piperazin-1-yl)phenyl]-1,3-oxazole-4-carboxamide] |
| < 10 | < 100 | CCN(CC)CCCS(=O)(=O)N1CCN(c2ccc(Br)c(NC(=O)c3coc(N)n3)c2)CC1 [Example 77, 2-Amino-N-[2-bromo-5-(4-{[3-(diethylamino)propyl]sulfonyl}piperazin-1-yl)phenyl]-1,3-oxazole-4-carboxamide] |
| 10 to 25 | 250 to 500 | CN1CCC(S(=O)(=O)N2CCN(c3ccc(Cl)c(NC(=O)c4coc(N)n4)c3)CC2)CC1 [Example 87, 2-Amino-N-{2-chloro-8-(4-[(1-methylpiperidin-4-yl)sulfonyl]piperazin-1-yl}phenyl)-1,3-oxazole-4-carboxamide] |
| < 10 | 100 to 250 | CN(C)CCS(=O)(=O)N1CCN(c2ccc(Br)c(NC(=O)c3coc(N)n3)c2)CC1 [Example 54, 2-Amino-N-[2-bromo-5-(4-{[2-(dimethylamino)ethyl]sulfonyl}piperazin-1-yl)phenyl]-1,3-oxazole-4-carboxamide] |
| < 10 | 100 to 250 | CC(C)NCCCS(=O)(=O)N1CCN(c2ccc(Cl)c(NC(=O)c3coc(N)n3)c2)CC1 [Example 72, 2-Amino-N-[2-chloro-5-(4-{[3-(propan-2-ylamino)propyl]sulfonyl}piperazin-1-yl)phenyl]-1,3-oxazole-4-carboxamide] |
| 25 to 100 | 500 to 1000 | Nc1nc(C(=O)Nc2cc(N3CCN(C(=O)OC4CCNC4)CC3)ccc2Cl)co1 (centres unmarked) [Example 32, Pyrrolidin-3-yl 4-(3-{[(2-amino-1,3-oxazol-4-yl)carbonyl]amino}-4-chlorophenyl)piperazine-1-carboxylate] |
| 25 to 100 | 500 to 1000 | CN(C)CCCOC(=O)N1CCN(c2ccc(Cl)c(NC(=O)c3coc(N)n3)c2)CC1 [Example 29, 3-(Dimethylamino)propyl 4-(3-{[(2-amino-1,3-oxazol-4-yl)carbonyl]amino}-4-chlorophenyl)piperazine-1-carboxylate] |
| 10 to 25 | 250 to 500 | CNCCS(=O)(=O)N1CCN(c2ccc(Cl)c(NC(=O)c3coc(N)n3)c2)CC1 [Example 56, 2-Amino-N-[2-chloro-5-(4-{[2-(methylamino)ethyl]sulfonyl}piperazin-1-yl)phenyl]-1,3-oxazole-4-carboxamide] |
| 10 to 25 | 250 to 500 | CN1CCC(NCCS(=O)(=O)N2CCN(c3ccc(Cl)c(NC(=O)c4coc(N)n4)c3)CC2)CC1 [Example 62, 2-Amino-N-{2-chloro-5-[4-({2-[(1-methylpiperidin-4-yl)amino]ethyl}sulfonyl)piperazin-1-yl]phenyl}-1,3-oxazole-4-carboxamide] |
| 10 to 25 | 100 to 250 | CCCNCCS(=O)(=O)N1CCN(c2ccc(Cl)c(NC(=O)c3coc(N)n3)c2)CC1 [Example 66, 2-Amino-N-[2-chloro-5-(4-{[2-(propylamino)ethyl]sulfonyl}piperazin-1-yl)phenyl]-1,3-oxazole-4-carboxamide] |
| 10 to 25 | 250 to 500 | CN(C)CCN1CCN(c2ccc(Br)c(NC(=O)c3coc(N)n3)c2)CC1=O [Example 45] |
| 10 to 25 | 100 to 250 | CC(C)NCCS(=O)(=O)N1CCN(c2ccc(Cl)c(NC(=O)c3coc(N)n3)c2)CC1 [Example 61, 2-Amino-N-[2-chloro-5-(4-{[2-(propan-2-ylamino)ethyl]sulfonyl}piperazin-1-yl)phenyl]-1,3-oxazole-4-carboxamide] |
| 10 to 25 | 100 to 250 | CCNCCS(=O)(=O)N1CCN(c2ccc(Cl)c(NC(=O)c3coc(N)n3)c2)CC1 [Example 65, 2-Amino-N-[2-chloro-5-(4-{[2-(ethylamino)ethyl]sulfonyl}piperazin-1-yl)phenyl]-1,3-oxazole-4-carboxamide] |
| 10 to 25 | 250 to 500 | CN(C)CCNCCS(=O)(=O)N1CCN(c2ccc(Cl)c(NC(=O)c3coc(N)n3)c2)CC1 [Example 60] |
| 10 to 25 | 250 to 500 | CN1CCN(CCS(=O)(=O)N2CCN(c3ccc(Cl)c(NC(=O)c4coc(N)n4)c3)CC2)CC1 [Example 59, 2-Amino-N-[2-chloro-5-(4-{[2-(4-methylpiperazin-1-yl)ethyl]sulfonyl}piperazin-1-yl)phenyl]-1,3-oxazole-4-carboxamide] |
| 25 to 100 | 500 to 1000 | CN(C)CCOC(=O)N1CCN(c2ccc(Cl)c(NC(=O)c3coc(N)n3)c2)CC1 [Example 33, 2-(Dimethylamino)ethyl 4-(3-{[(2-amino-1,3-oxazol-4-yl)carbonyl]amino}-4-chlorophenyl)piperazine-1-carboxylate] |
| 10 to 25 | 250 to 500 | CNCCCS(=O)(=O)N1CCN(c2ccc(Cl)c(NC(=O)c3coc(N)n3)c2)CC1 [Example 73, 2-Amino-N-[2-chloro-5-(4-{[3-(methylamino)propyl]sulfonyl}piperazin-1-yl)phenyl]-1,3-oxazole-4-carboxamide] |
